We go through 16 compounds from PubChem BioAssay AID292 (DTP/NCI, 2004).

In the assay the test system is B6C3F1 mice, ip Sarcoma M5076, median survival T/C. The experiment in a line: NCI In Vivo Anticancer Drug Screen. Data for tumor model Sarcoma M5076 (intraperitoneal) in B6C3F1 mice. Conditions: endpoint: median survival time, schedule: Q04DX004 (ip), higher = longer survival. The procedure, abridged: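 Mice carrying the transplanted tumour received compound treatment. Survival was recorded, and each value is the treated-group measurement divided by that of the vehicle-dosed control group.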

Setting [1] is: dose: 25.0 mg/kg/injection, vehicle: saline with Tween-80.
Setting [2] is: dose: 50.0 mg/kg/injection, vehicle: saline with Tween-80.
Setting [3] is: dose: 100.0 mg/kg/injection, vehicle: saline with Tween-80.
The mark [4] stands for this setting: dose: 200.0 mg/kg/injection, vehicle: saline with Tween-80.
Where [5] appears, read: dose: 50.0 mg/kg/injection, vehicle: Klucel (hydroxypropylcellulose) (HPC).
The mark [6] stands for this setting: dose: 12.5 mg/kg/injection, vehicle: saline with Tween-80.
Where [7] appears, read: dose: 50.0 mg/kg/injection, vehicle: suspension in saline.
The mark [8] stands for this setting: dose: 200.0 mg/kg/injection, vehicle: suspension in saline.
Where [9] appears, read: dose: 400.0 mg/kg/injection, vehicle: suspension in saline.
Where [10] appears, read: dose: 400.0 mg/kg/injection, vehicle: saline with Tween-80.

“And” between values parts separate entries of the source, which are not always exact repeats. Equal entries are not always repeated. Inconclusive results and toxic doses are left out.

Turning to `COc1cc2c(c3c1/c(=N/N)c1ccccc1n3C)C=CC(C)(C)O2`, the T/C is, setting by setting: under setting [1], 108 % of control; under setting [2], 110 % of control; under setting [3], 89 % of control; under setting [4], 104 % of control.

Take `O=S(CCCl)CCCl`: the T/C is 102 % of control (dose: 6.25 mg/kg/injection, vehicle: Klucel (hydroxypropylcellulose) (HPC)); 98 % of control (dose: 12.5 mg/kg/injection, vehicle: Klucel (hydroxypropylcellulose) (HPC)); 98 % of control (dose: 25.0 mg/kg/injection, vehicle: Klucel (hydroxypropylcellulose) (HPC)); 106 % of control under setting [5].

With `CCn1c2ccccc2c2cc(N)c(N=Nc3ccc(N(C)C)cc3)cc21`, the T/C by setting is: (dose: 32.82 mg/kg/injection, vehicle: Klucel (hydroxypropylcellulose) (HPC)) 111 % of control; (dose: 65.63 mg/kg/injection, vehicle: Klucel (hydroxypropylcellulose) (HPC)) 93 % of control; (dose: 131.25 mg/kg/injection, vehicle: Klucel (hydroxypropylcellulose) (HPC)) 97 % of control; (dose: 262.5 mg/kg/injection, vehicle: Klucel (hydroxypropylcellulose) (HPC)) 93 % of control; (dose: 525.0 mg/kg/injection, vehicle: Klucel (hydroxypropylcellulose) (HPC)) 90 % of control.

As to `CC(O)C1(O)C(O)CC(OC2c3cc4c(c(O)c3[C@@H]3C[C@@]2(C)OC32C=c3cc[nH]c3=N2)C(=O)c2cccc(O)c2C4=O)OC1C` (some centres undefined), the T/C was 104 % of control under setting [6], 104 % of control under setting [1] and 92 % of control under setting [2].

For the compound `CC1(O)C=CC(=O)C=C1`, the T/C (dose: 12.5 mg/kg/injection, vehicle: water) was 104 % of control; the T/C (dose: 25.0 mg/kg/injection, vehicle: water) was 102 % of control and 113 % of control; the T/C (dose: 50.0 mg/kg/injection, vehicle: water) is 109 % of control and 114 % of control.

On to `c1nnc(NCNc2nncs2)s1`, for which the T/C runs as follows: (dose: 25.0 mg/kg/injection, vehicle: suspension in saline) 113 % of control; under setting [7], 122 % of control; (dose: 144.0 mg/kg/injection, vehicle: suspension in saline) 154 % of control; under setting [8], 123 % of control; (dose: 240.0 mg/kg/injection, vehicle: suspension in saline) 164 % of control; under setting [9], 168 % of control and 177 % of control.

For `O=C(O)c1cc(C(=O)O)c(C(=O)O)cc1C(=O)O.[NH2-].[NH2-].[NH2-].[NH2-].[Pt+2].[Pt+2]`, the T/C is, setting by setting: (dose: 0.12 mg/kg/injection, vehicle: water) 99 % of control; (dose: 0.25 mg/kg/injection, vehicle: water) 112 % of control; (dose: 0.5 mg/kg/injection, vehicle: water) 100 % of control; (dose: 1.0 mg/kg/injection, vehicle: water) 97 % of control; (dose: 2.0 mg/kg/injection, vehicle: water) 94 % of control; (dose: 4.0 mg/kg/injection, vehicle: water) 103 % of control and 108 % of control. The T/C by setting is: (dose: 8.0 mg/kg/injection, vehicle: water) 113 % of control and 119 % of control; (dose: 32.0 mg/kg/injection, vehicle: water) 150 % of control and 241 % of control; (dose: 64.0 mg/kg/injection, vehicle: water) 250 % of control.

For `C1OC1CO[C@@H]1CO[C@H]2[C@@H]1OC[C@H]2OCC1CO1` (some centres undefined), the T/C runs as follows: (dose: 50.0 mg/kg/injection, vehicle: saline) 119 % of control; under setting [7], 119 % of control; (dose: 100.0 mg/kg/injection, vehicle: suspension in saline) 150 % of control; (dose: 200.0 mg/kg/injection, vehicle: saline) 186 % of control; under setting [8], 215 % of control; (dose: 400.0 mg/kg/injection, vehicle: saline) 183 % of control. Besides, the T/C under setting [9] is 239 % of control.

`Cn1c2c(c3nc(N)nc(N)c3c1=O)CCc1ccccc1-2`: the T/C runs as follows: (dose: 25.0 mg/kg/injection, vehicle: distilled water + alcohol) 100 % of control; (dose: 50.0 mg/kg/injection, vehicle: distilled water + alcohol) 104 % of control; (dose: 100.0 mg/kg/injection, vehicle: distilled water + alcohol) 100 % of control.

As to `COC1=CCC23C(=O)C=CC(=O)C2(C1)C(=O)c1ccccc1C3=O` (centres undefined), the T/C (dose: 1.5 mg/kg/injection, vehicle: saline with Tween-80) is 110 % of control; the T/C (dose: 3.0 mg/kg/injection, vehicle: saline with Tween-80) is 95 % of control; the T/C (dose: 6.0 mg/kg/injection, vehicle: saline with Tween-80) is 94 % of control; the T/C (dose: 12.0 mg/kg/injection, vehicle: saline with Tween-80) was 98 % of control; the T/C (dose: 24.0 mg/kg/injection, vehicle: saline with Tween-80) was 108 % of control.

`O=C1C2CC(Cl)C(SSC3CC4C(=O)N(SC(Cl)(Cl)C(Cl)Cl)C(=O)C4CC3Cl)CC2C(=O)N1SC(Cl)(Cl)C(Cl)Cl` (centres undefined): the T/C by setting is: under setting [6], 97 % of control; under setting [1], 95 % of control; under setting [2], 98 % of control and 105 % of control; under setting [3], 90 % of control and 97 % of control; under setting [4], 102 % of control and 117 % of control; under setting [10], 110 % of control. The T/C (dose: 800.0 mg/kg/injection, vehicle: saline with Tween-80) is 109 % of control.

For the compound `CCC(CC)C(=O)NCC(=O)NO`, the T/C by setting is: under setting [1], 93 % of control; under setting [2], 93 % of control; under setting [3], 93 % of control; under setting [4], 97 % of control; under setting [10], 92 % of control.

As for `CNC(=O)c1ccccc1CNC(=S)Nc1cccc(C)c1`, the T/C (dose: 37.5 mg/kg/injection, vehicle: Klucel (hydroxypropylcellulose) (HPC)) is 92 % of control; the T/C (dose: 75.0 mg/kg/injection, vehicle: Klucel (hydroxypropylcellulose) (HPC)) is 102 % of control; the T/C (dose: 150.0 mg/kg/injection, vehicle: Klucel (hydroxypropylcellulose) (HPC)) was 99 % of control; the T/C (dose: 300.0 mg/kg/injection, vehicle: Klucel (hydroxypropylcellulose) (HPC)) is 102 % of control.

For the compound `CCCCCCCCCCCC1NC(=S)NC(=O)C1C#N` (centres undefined), the T/C under setting [5] is 91 % of control.

Consider `N#CC1C(=O)NC(=O)C(C#N)C1c1c2ccccc2cc2ccccc12` (centres undefined), for which the T/C reads like this: under setting [5], 96 % of control; (dose: 100.0 mg/kg/injection, vehicle: Klucel (hydroxypropylcellulose) (HPC)) 103 % of control; (dose: 200.0 mg/kg/injection, vehicle: Klucel (hydroxypropylcellulose) (HPC)) 94 % of control; (dose: 400.0 mg/kg/injection, vehicle: Klucel (hydroxypropylcellulose) (HPC)) 106 % of control; (dose: 800.0 mg/kg/injection, vehicle: Klucel (hydroxypropylcellulose) (HPC)) 102 % of control.

Turning to `O=c1c(-c2nn[nH]n2)cnc2sc3cc(Cl)ccc3n12`, the T/C is, setting by setting: (dose: 37.5 mg/kg/injection, vehicle: saline with Tween-80) 98 % of control; (dose: 75.0 mg/kg/injection, vehicle: saline with Tween-80) 95 % of control; (dose: 150.0 mg/kg/injection, vehicle: saline with Tween-80) 90 % of control.
